# In patent publication EP2208725A1, “Novel specific inhibitors of ubiquitin specific protease 7, the pharmaceutical compositions thereof and their therapeutic applications” (Hybrigenics S.A., priority 2009, dated 2010):
# Biological target: T1, Caspase 3 (Homo sapiens, UniProt P42574)
# T1 sequence (P42574 29-175 limits assumed): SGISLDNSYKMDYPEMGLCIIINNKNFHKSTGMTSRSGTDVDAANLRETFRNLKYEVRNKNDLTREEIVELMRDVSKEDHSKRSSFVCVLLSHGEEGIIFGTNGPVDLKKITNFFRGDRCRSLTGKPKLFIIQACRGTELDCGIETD
# T1 sequence (P42574 176-277 limits assumed): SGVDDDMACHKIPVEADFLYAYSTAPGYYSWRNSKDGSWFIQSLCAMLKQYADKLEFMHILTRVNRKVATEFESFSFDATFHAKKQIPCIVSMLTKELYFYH
# Test: Caspase 3 activity assay (Ac-DEVD-AMC)
# Format: biochemical
# Details: 250 nM Ac-DEVD-AMC, 1.6 nM enzyme; compounds tested from 200 µM to 91 nM; unit inferred; read-out: Inhibition of cysteine protease activities: Casp3
# Description: Caspase 3 was diluted in Caspase 3 buffer (100 mM Hepes pH 7.5; 10% sucrose; 0.1% CHAPS). Compounds stocks (100 mM) were stored at -20°C in DMSO. Compounds were tested at different concentrations: from 200 µM to 91 nM. Reactions were performed as duplicates in Black LJL 96 well plates (HE microplates; Molecular Devices; 20 µl final reaction volume). The substrate concentration for caspase 3 specificity assay was 250 nM (Ac-DEVD-AMC; Promega). The concentration of the enzyme (Caspase 3) in specificity assays was 1.6 nM. The concentrations were determined in order to perform specificity assays under initial velocities at fixed substrate concentration. Compounds were pre-incubated with enzymes for 30 minutes at 25°C. Reactions were initiated by addition of substrate to the plates containing the enzymes (+/- compounds) diluted in assay buffer. Reactions were incubated for 60 minutes at 37°C. Reactions were stopped by adding acetic acid (100 mM final). Readings were performed on a Pherastar Fluorescent Reader (BMG). λ Emission 380 nm; λ Excitation = 460 nm. Data (mean values +/- standard deviation) were analyzed as % of control (no compound) and plotted as percentage versus the Log of the compound concentration using GraphPad (Prism). Data were fitted to a sigmoidal model (variable slope).
row,IC50 [µM],SMILES
1,> 200,"CC(=O)C1=C(O)C(=O)N(CCc2ccc(Cl)c(Cl)c2)C1c1ccc(Br)cc1 (stereo not shown) [Example 28, 4-acetyl-5-(4-bromo-phenyl)-1-[2-(3,4-dichloro-phenyl)-ethyl]-3-hydroxy-1,5-dihydro-pyrrol-2-one]"
2,> 200,"CC(=O)C1=C(O)C(=O)N(CCc2ccc(Cl)cc2)C1c1ccc(Cl)cc1 (stereo not shown) [Example 46, 4-Acetyl-5-(4-chlorophenyl)-1-[2-(4-chlorophenyl)-ethyl]-3-hydroxy-1,5-dihydro-pyrrol-2-one]"
3,> 200,"CC(=O)C1=C(O)C(=O)N(CCc2ccc(F)cc2)C1c1ccc(Br)cc1 (stereo not shown) [Example 33, 4-acetyl-5-(4-bromo-phenyl)-3-hydroxy-1-[2-(4-fluorophenyl)-ethyl]-1,5-dihydro-pyrrol-2-one]"
4,> 200,"CC(=O)C1=C(O)C(=O)N(CCc2ccc(Br)cc2)C1c1ccc(Br)cc1 (stereo not shown) [Example 26, 4-acetyl-5-(4-bromo-phenyl)-1-[2-(4-bromo-phenyl)-ethyl]-3-hydroxy-1,5-dihydro-pyrrol-2-one]"
5,> 200,"CC(=O)C1=C(O)C(=O)N(CCc2ccc(Cl)cc2)C1c1ccc(Br)cc1 (stereo not shown) [Example 25, 4-acetyl-5-(4-bromo-phenyl)-1-[2-(4-chloro-phenyl)-ethyl]-3-hydroxy-1,5-dihydro-pyrrol-2-one]"
6,> 200,"CC(=O)C1=C(O)C(=O)N(CCc2ccc(Br)cc2)C1c1ccc(Cl)cc1 (stereo not shown) [Example 45, 4-Acetyl-5-(4-chlorophenyl)-1-[2-(4-bromophenyl)-ethyl]-3-hydroxy-1,5-dihydro-pyrrol-2-one]"
7,> 200,"COc1ccc(CCN2C(=O)C(O)=C(C(C)=O)C2c2ccc(Br)cc2)cc1 (stereo not shown) [Example 32, 4-acetyl-5-(4-bromo-phenyl)-3-hydroxy-1-[2-(4-methoxyphenyl)-ethyl]-1,5-dihydro-pyrrol-2-one]"
8,> 200,"CC(=O)C1=C(O)C(=O)N(CCc2ccccc2)C1c1ccc(Br)c(Br)c1 (stereo not shown) [Example 41, 4-acetyl-5-(3,4-dibromo-phenyl)-3-hydroxy-1-phenethyl-1,5-dihydro-pyrrol-2-one]"
9,> 200,"COc1cccc(CCN2C(=O)C(O)=C(C(C)=O)C2c2ccc(Br)cc2)c1 (stereo not shown) [Example 30, 4-acetyl-5-(4-bromo-phenyl)-3-hydroxy-1-[2-(3-methoxyphenyl)-ethyl]-1,5-dihydro-pyrrol-2-one]"
10,> 200,"CCOc1ccc(CCN2C(=O)C(O)=C(C(C)=O)C2c2ccc(Br)cc2)cc1 (stereo not shown) [Example 34, 4-acetyl-5-(4-bromo-phenyl)-3-hydroxy-1-[2-(4-ethoxy-phenyl)-ethyl]-1,5-dihydro-pyrrol-2-one]"
11,> 200,"CC(=O)C1=C(O)C(=O)N(CCc2ccc(Cl)cc2Cl)C1c1ccc(Br)cc1 (stereo not shown) [Example 47, 4-Acetyl-5-(4-bromophenyl)-1-[2-(2,4-dichlorophenyl)-ethyl]-3-hydroxy-1,5-dihydro-pyrrol-2-one]"
12,> 200,"CC(=O)C1=C(O)C(=O)N(CCc2ccccc2)C1c1ccc2c(c1)OCO2 (stereo not shown) [Example 37, 4-acetyl-5-benzo[1,3]dioxol-5-yl-3-hydroxy-1-phenethyl-1,5-dihydro-pyrrol-2-one]"
13,> 200,"CC(=O)C1=C(O)C(=O)N(CCc2ccccc2)C1c1cccnc1Cl (stereo not shown) [Example 42, 4-acetyl-5-(2-chloro-pyridin-3-yl)-3-hydroxy-1-phenethyl-1,5-dihydro-pyrrol-2-one]"
